Test results taken from US20250120425A1, “Combinations of Ketogenic Supplements for Rapid and Sustained Blood Ketone Levels in Dieters and Patients” (priority 2021, published 2025).

Key:
[1] = Blood βHB levels after single oral administration of ketogenic compounds in human subjects
Experimental: Table 1 is data depicting blood BHB levels of 4 male subjects with an average weight of 76 kg in a fasted state that received 5.5 grams of buffered (D) βHB together with 4.5 grams of (D)-1,3BD, 328 mg of Na+ in the form of NaHCO3 and 500 mg of K+ in the form of KHCO3, at 15, 30, 45 and 60 minutes after oral administration. […] That compound is an ester formed by reacting (D)-3-hydroxybutyrate and (D)-1,3-butanediol.
Table 2 is data depicting blood βHB levels after a single administration of 5.5 grams of buffered (D) βHB together with 4.5 grams of (D)-1,3BD, 328 mg of Na+ in the form of NaHCO3 and 500 mg of K+ in the form of KHCO3 in a fasted 70 kg subject who was following a strict ketogenic diet and keto adapted due at 15, 30, 45 and 60 minutes after oral administration.
Table 3 is data depicting blood BHB after a single administration of 10 grams of buffered (D) βHB acid with 328 mg of Na+ in the form of NaHCO3 and 500 mg of K+ in the form of KHCO3 in a fasted 75 kg subject and two fasted 65 kg female subjects at 15, 30, 45, 60 and 90 minutes after administration.
FIG. […] The total dose of 60 grams was administered 3 hours after a meal. […] Those esters are typically administered after an overnight fast on an empty stomach. […] FIG. 5 also includes blood samples for 2 esters of (D)-BHB. The first was from HVMN and consisted of […] of ester (2 commercially available 30 gram bottles). The second was the ester KE4 from KetoneAid and contained 60 net grams (2 commercially available 30 gram bottles). The choice of 60 grams of active ester was based on dosing protocols for elite athletes in the paper “Nutritional Ketosis Alters Fuel Preference and Thereby Endurance in Elite Athletes” Cell Metabolism Cox et al. 2016.

[2] = human, in vivo; cited from earlier work

Structure (SMILES): C[C@@H](O)CC(=O)O [10 g HB, (D)-beta-hydroxybutyrate]
- effectiveness at raising blood levels of (D)-βHB, pure (D) form versus racemic ([1]; human, in vivo): more than twice as effective

Structure (SMILES): CC(O)CCO (stereo not shown) [(D)-1,3BD, (D)-1,3-butanediol]
- serum level of (D)-beta-hydroxybutyrate reached ([1]; 10 grams, 75 kg person): 0.9 mmol
- effectiveness at raising serum levels of (D)-beta-hydroxybutyrate ([1]; (D) enantiomer compared with the racemic form): ~3 times
- mean blood BHB level ([1]; Table 4: 10 grams single administration, 72 kg fasted subject, T + 0): 0.0
- mean blood BHB level ([1]; Table 4: 10 grams, 72 kg fasted male, +15 Min): 0.6
- mean blood BHB level ([1]; Table 4: 10 grams, 72 kg fasted male, +30 Min): 0.9
- mean blood BHB level ([1]; Table 4: 10 grams, 72 kg fasted male, +45 Min): 0.9
- mean blood BHB level ([1]; Table 4: 10 grams, 72 kg fasted male, +60 Min): 0.5
- mean blood BHB level ([1]; Table 4: 10 grams, 72 kg fasted male, +90 Min): 0.3
- effectiveness at raising blood levels of (D)-βHB, pure (D) form versus racemic ([1]; for any given weight): more than twice as effective
- ketogenic power compared with the free acid (D)-βHB ([1]; gram to gram basis): the liver. On a gram to gram basis, it is a more powerful
- ketogenic power relative to the ketone ester ([1]; gram to gram basis): ~90% as powerful as the previously mentioned ketone ester

Structure (SMILES): C[C@@H](O)CCOC(=O)C[C@@H](C)O [(D)-3-hydroxybutyl-(D)-3-hydroxybutyrate]
- average serum increase for βHB [2]: 1.0 mmol/10 grams
